Measurements taken from patent US5686424A, “2-oxoethyl derivatives as immunosuppressants” (Miles Inc., priority 1995, dated 1997).
Counter-ions that a name gives are not always drawn.

Tests used:
human T-cells = assay: Suppression of Human T-Cell Proliferation Assay (PHA-stimulated, [3H]-thymidine incorporation); format: cell-based; conditions: concentration inhibiting [3H]-thymidine incorporation of PHA-stimulated T-cells by 50%, 72 hours; TABLE 2; read-out: IC50
Outline: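 SRBC-rosette-purified human peripheral T-cells stimulated with PHA-M (40 μg/ml stock) and compound dilutions, in duplicate, for 72 h at 37° C. Proliferation measured by [3H]-thymidine incorporation during the final 6 h, read by liquid scintillation counting.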

NF-AT = NF-AT Inhibition Assay Directed β-Galactosidase Expression in FGL-5 cells; format: cell-based; conditions: 50% inhibition of NF-AT directed β-galactosidase activity in FGL-5 cells stimulated with phorbol dibutyrate and ionomycin; TABLE 3
Outline: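 FGL-5 Jurkat cells (3 million cells/ml) carry NF-AT-site-driven lacZ. They were stimulated with phorbol dibutyrate plus ionomycin and incubated with compound 16-18 h at 37 °C, in duplicate wells with matched ethanol or DMSO vehicle controls. β-Galactosidase was read as fluorescence from 4-methylumbelliferyl-β-D-galactoside cleavage, giving percent inhibition.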

FKBP = FKBP (Homo sapiens, UniProt P62942); assay: PPIase Inhibition Assay; format: biochemical; conditions: concentration of inhibitor required for 50% inhibition of enzyme activity; FKBP, substrate Succinyl-Ala-Phe-Pro-Phe-para-nitroanilide; TABLE I
Outline: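 Chymotrypsin-coupled isomerization of Succinyl-Ala-Phe-Pro-Phe-para-nitroanilide by FKBP in ice-cold 25 mM HEPES pH 7.8, 100 mM NaCl, compound in DMSO. A390 followed 90 sec; first-order rate constants give % activity remaining after subtracting uncatalyzed rate; IC50 by linear regression of V-/V+ versus concentration.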

FKBP, sequence (P62942 whole entry): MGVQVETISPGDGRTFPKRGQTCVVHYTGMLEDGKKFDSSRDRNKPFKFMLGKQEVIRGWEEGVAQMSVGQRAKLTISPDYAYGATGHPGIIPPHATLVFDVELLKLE

SMILES | IC50 (NF-AT) | IC50 (FKBP) | IC50 (human T-cells)
COc1cc(C(=O)CN2CCC[C@H]2C(=O)N2CCC(c3ccccc3)CC2)cc(OC)c1OC [Example 131, L-Proline, 1-[2-(3,4,5-Trimethoxyphenyl)-2-Oxoethyl] 4-Phenylpiperldenylamide] | > 33 µM | > 5 µM | 22 µM
COc1ccc(CNC(=O)[C@@H]2CCCN2CC(=O)c2cc(OC)c(OC)c(OC)c2)cc1 [Example 132, L-Proline, 1-[2-(3,4,5-Trimethoxyphenyl)-2-Oxoethyl] 4-Methoxybenzamide Hydrochloride] | > 33 µM | > 5 µM | 24 µM
COc1cccc(CNC(=O)[C@@H]2CCCN2CC(=O)c2cc(OC)c(OC)c(OC)c2)c1 [Example 133, L-Proline, 1-[2-(3,4,5-Trimethoxyphenyl)-2-Oxoethyl] 3-Methoxybenzamide Hydrochloride] | > 33 µM | > 5 µM | 22 µM
COc1cc(C(=O)CN2CCC[C@H]2C(=O)NCC23CC4CC(CC(C4)C2)C3)cc(OC)c1OC [Example 139, L-Proline, 1-[2-(3,4,5-Trimethoxyphenyl)-2-Oxoethyl] Adamant-1-ylmethylamide Hydrochloride] | > 33 µM | > 5 µM | 4 µM
COc1cc(C(=O)CN2CCC[C@H]2C(=O)NCC2CCCCC2)cc(OC)c1OC [Example 141, L-Proline, 1-[2-(3,4,5-Trimethoxylphenyl)-2-Oxoethyl] Cyclohexylmethylamide] | > 33 µM | > 5 µM | 7 µM
COc1cc(C(=O)CN2CCC[C@H]2C(=O)NC(C)(C)C)cc(OC)c1OC [Example 143, L-Proline, 1-[2-(3,4,5-Trimethoxyphenyl)-2-Oxoethyl] tert-Butylamide Hydrochloride] | > 33 µM | > 5 µM | 3 µM

Continued, in another order:

IC50 (NF-AT) | IC50 (FKBP) | SMILES | IC50 (human T-cells)
> 33 µM | > 5 µM | COc1ccccc1CNC(=O)[C@@H]1CCCN1CC(=O)c1cc(OC)c(OC)c(OC)c1 [Example 134, L-Proline, 1-[2-(3,4,5-Trimethoxyphenyl)-2-Oxoethyl] 2-Methoxybenzamide Hydrochloride] | 19 µM
> 33 µM | > 5 µM | COc1cc(C(=O)CN2CCC[C@H]2C(=O)N(C)CCc2ccccc2)cc(OC)c1OC [Example 135, L-Proline, 1-[2-(3,4,5-Trimethoxyphenyl)-2-Oxoethyl] N-MethylphenethylamideHydrochloride] | 14 µM
> 33 µM | > 5 µM | COc1cc(C(=O)CN2CCC[C@H]2C(=O)N[C@@H](C)c2ccccc2)cc(OC)c1OC [Example 136, L-Proline, 1-[2-(3,4,5-Trimethoxyphenyl)-2-Oxoethyl] (S)-α-methylbenzylamide Hydrochloride] | 7 µM
> 33 µM | > 5 µM | COc1cc(C(=O)CN2CCC[C@H]2C(=O)N[C@H](C)c2ccccc2)cc(OC)c1OC [Example 137, L-Proline, 1-[2-(3,4,5-Trimethoxyphenyl)-2-Oxoethyl] (R)-α-methylbenzylamide Hydrochloride] | 16 µM
> 33 µM | > 5 µM | COc1cc(C(=O)CN2CCC[C@H]2C(=O)NC(C)CCc2ccccc2)cc(OC)c1OC (stereo partly drawn) [Example 138, L-Proline, 1-[2-(3,4,5-Trimethoxyphenyl)-2-Oxoethyl] 1-methyl-3-phenylpropylamide Hydrochloride] | 18 µM
> 33 µM | > 5 µM | COc1cc(C(=O)CN2CCC[C@H]2C(=O)N[C@H](C)c2cccc3ccccc23)cc(OC)c1OC [Example 140, L-Proline, 1-[2-(3,4,5-Trimethoxyphenyl)-2-Oxoethyl] 1-(R)-(1-naphthyl)ethylamide Hydrochloride] | 10 µM
> 33 µM | > 5 µM | COc1cc(C(=O)CN2CCC[C@H]2C(=O)NC(c2ccccc2)c2ccccc2)cc(OC)c1OC [Example 142, L-Proline, 1-[2-(3,4,5-Trimethoxyphenyl)-2-Oxoethyl] Diphenylmethylamide Hydrochloride] | 12 µM
